Measured values: patent US20240199538A1, “Novel Chlorhexidine Salts and Related Compositions and Methods” (Colgate-Palmolive Company, priority 2022, published 2024)

Assay: CHG and CHG-SLS mixture aging study, CHX degradation products by GC-MS
Assay type: physicochemical
Conditions: aqueous 20% CHG solution, 60° C. oven
Description: Sample preparation for CHX degradation analysis by using GCMS analysis: Both aged solutions are taken from the 60° C.oven. They are diluted at 1:3.5 ratios with methanol. Both solutions are filtrated with a 0.20 um PTFE filter, respectively, then they are diluted again at a 1:10 dilution ratio with methanol and then transferred into a ROBO autosampler vials for GC-MS analysis. The gas chromatography system 6890N with 5972 MS detector plus Gerstel MPS-2 autosampler (Agilenet Technologies, Santa, Clara, CA, USA) is used for detection of CHX degradation products. Separation is accomplished using GC column of HP-5MS (30 m×0.25 mm×0.25 um, length×inside diameter×film thickness, Agilent Technologies). The 1 μL sample is injected with the splitless mode. The oven temperature is initially held at 80° C.for 1 min. Thereafter the temperature is raised at 6° C./min until 300° C.and held for 2.33 min. Total running time is 40 minutes. Helium is used as the carrier gas and delivered at a constant flow rate at 1 mL/min (the pressure at 9.38 psi and velocity at 37 cm/sec). The injector temperature is set at 250° C. and the interface temperature between GC oven and MS detector is250° C. […]

N=C(NCCCCCCNC(=N)NC(=N)Nc1ccc(Cl)cc1)NC(=N)Nc1ccc(Cl)cc1.O=C(O)[C@H](O)[C@@H](O)[C@H](O)[C@H](O)CO.O=C(O)[C@H](O)[C@@H](O)[C@H](O)[C@H](O)CO [CHG, chlorhexidine gluconate]
Peak integration for CHX degradation product at 3 weeks (3 weeks): 523490
Peak integration for CHX degradation product at 6 weeks (6 weeks): 7560037
